Test results taken from patent US11390661B2, “HCMV entry inhibitors” (priority 2016, dated 2022).

Tested on: HCMV strain TB40/E
Experiment: Inhibition of infection of fibroblasts (HFFs), IE antigen immunofluorescence
Assay type: cell-based, Human cytomegalovirus
Method: For testing the inhibitory effect of antivirals or fusion proteins on HCMV, the respective inhibitors were diluted in MEM and mixed with infectious supernatants, the mixtures were incubated for 2 h at 37° C. before addition to the cells. For fibroblast infection the virus-inhibitor mixture was incubated on the cells for about 24 h. If endothelial cells were included in the experiment, all cells were supplied with their respective maintenance media after 2 h, and further incubated for 22 h.
Infection efficiencies were determined by immunofluorescence staining for viral proteins. For fixation and permeabilization the cells were incubated with 80% acetone for 5 min. For HCMV infected cells the immediate early proteins pUL122/123 were detected with a mouse monoclonal (clone E13, Argene) and visualized using a Cy3 conjugated goat anti-mouse secondary antibody (Jackson Immuno Research). HSV infected cultures were stained 6 h post infection for ICP0 using a mouse monoclonal (clone 11060, Santa Cruz) and goat anti-mouse AF488 (life technologies). DAPI was used to locate nuclei. Infection rates were determined by counting the number of cell nuclei positive for the respective viral protein, as well as the total number of nuclei per image. For each condition three images were evaluated.
To test this, the inventors pre-incubated cell free preparations of HCMV strain TB40/E with variable concentrations of soluble PDGFR-alpha-Fc chimeras for 2 h before adding them to HFFs and HECs. After 2 h the virus was removed and replaced with the appropriate cell culture medium for an overnight incubation. Cultures were then fixed, and the fraction of infected cells was determined by indirect immunofluorescence staining of viral IE antigens.
Cell free preparations of TB40/E were pre-incubated with increasing concentrations of the various Fc chimeras for 2 h. HFFs were then incubated with the mixtures for 2 h followed by a medium exchange and an overnight incubation.

“PDGFR-alpha-Fc: recombinant Fc-fusion protein of the PDGFR-alpha extracellular domain, obtained from R&D (6765-PR-050)” was tested, and the “inhibition of infection of HFFs at 200 ng/ml” value (200 ng/ml) was “complete abrogation of infection”, the “inhibitory potential of Fc chimeras on HCMV infection of HFFs” value (increasing concentrations, pre-incubated 2 h) was “blocked infection in a dose dependent fashion” and the “EC50 of inhibition of infection of HFFs” value (virus pre-incubated 2 h) was 10 to 20 ng/mL.
